Consider 20 compounds from US20220089575A1, “FARNESOID X RECEPTOR AGONISTS AND USES THEREOF” (Metacrine, Inc., priority 2017, published 2022).

SMILES strings stand for the structures.

The EC50 is the concentration needed to bring the measured effect to its halfway point. The low end stands for a more potent agent, the high end for a less potent agent.

The assay addresses T1, hFXR (Homo sapiens, UniProt Q96RI1).
T1 construct: expressed in transfected cells; host or cells: CV-1 cells
T1 sequence (Q96RI1 1-486): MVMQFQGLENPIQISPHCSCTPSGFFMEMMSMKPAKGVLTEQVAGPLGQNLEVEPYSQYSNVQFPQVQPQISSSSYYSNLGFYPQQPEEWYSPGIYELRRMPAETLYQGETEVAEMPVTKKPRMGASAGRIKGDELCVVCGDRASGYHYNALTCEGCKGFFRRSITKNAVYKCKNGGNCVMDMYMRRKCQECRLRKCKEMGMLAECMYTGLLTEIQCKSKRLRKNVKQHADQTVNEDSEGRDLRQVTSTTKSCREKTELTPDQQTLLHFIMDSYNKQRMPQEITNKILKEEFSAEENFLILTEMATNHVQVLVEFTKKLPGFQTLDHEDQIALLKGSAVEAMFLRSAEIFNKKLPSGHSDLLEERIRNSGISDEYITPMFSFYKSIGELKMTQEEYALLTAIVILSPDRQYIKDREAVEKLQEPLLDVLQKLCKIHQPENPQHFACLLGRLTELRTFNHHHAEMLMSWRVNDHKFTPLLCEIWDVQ
T1 sequence (P19793 1-462 partner): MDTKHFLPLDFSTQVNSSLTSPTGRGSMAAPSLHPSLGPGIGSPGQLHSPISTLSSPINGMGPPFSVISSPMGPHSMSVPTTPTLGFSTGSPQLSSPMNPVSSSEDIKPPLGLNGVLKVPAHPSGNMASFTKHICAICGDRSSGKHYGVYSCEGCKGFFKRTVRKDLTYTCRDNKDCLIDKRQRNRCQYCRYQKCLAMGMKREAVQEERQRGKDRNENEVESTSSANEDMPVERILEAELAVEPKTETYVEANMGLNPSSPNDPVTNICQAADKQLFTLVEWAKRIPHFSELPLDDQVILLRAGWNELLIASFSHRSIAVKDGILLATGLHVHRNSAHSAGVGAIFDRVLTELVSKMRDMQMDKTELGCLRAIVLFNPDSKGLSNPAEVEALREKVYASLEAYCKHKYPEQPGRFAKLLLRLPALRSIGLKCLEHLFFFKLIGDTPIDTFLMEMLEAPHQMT
The assay is described as follows: In Vitro FXR Assay (TK): TK-ECRE-luc reporter in transfected CV-1 cells. It counts as cell-based. The settings on record: 18 hrs, luminescence, maximum efficacy of <25% of the Fexarmine control classified as '+'. The essentials: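 CV-1, transient co-transfection: hFXR + hRXR + TK-ECRE-luc + pCMX-YFP; charcoal-stripped serum. 18 h post-transfection, DMSO serial dilutions of cpd added; 18 h incubation; lysis, luminescence.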
In turn, `COc1ccc([C@H]2CC[C@H](CN(c3cc(-c4cnn(C(C)C)c4)ccn3)C(=O)[C@H]3CC[C@H](CC(=O)O)CC3)CC2)cc1C#N` [Compound 17.26, 2-(trans-4-(((trans-4-(3-Cyano-4-methoxyphenyl)cyclohexyl)methyl)(4-(1-isopropyl-1H-pyrazol-4-yl)pyridin-2-yl)carbamoyl)cyclohexyl)acetic acid] showed an EC50 not above 250 nM.
Compound `COc1ccc([C@H]2CC[C@H](CN(c3cc(-c4cnn(C(C)C)c4)ccn3)C(=O)[C@H]3CC[C@H](CC(=O)O)CC3)CC2)nc1C#N` [Compound 17.27, 2-(trans-4-(((trans-4-(6-Cyano-5-methoxypyridin-2-yl)cyclohexyl)methyl)(4-(1-isopropyl-1H-pyrazol-4-yl)pyridin-2-yl)carbamoyl)cyclohexyl)acetic acid] displayed an EC50 not below 1000 nM.
On to `COc1ccc([C@H]2CC[C@H](CN(c3cccc(-c4coc(C5CC5)n4)c3)C(=O)[C@H]3CC[C@H](C(=O)O)CC3)CC2)cc1C#N` [Compound 18, trans-4-(((trans-4-(3-Cyano-4-methoxyphenyl)cyclohexyl)methyl)(3-(2-cyclopropyloxazol-4-yl)phenyl)carbamoyl)cyclohexanecarboxylic acid], for which the concentration giving a half-maximal response (EC50) was not above 250 nM.
Under `COc1ccc([C@H]2CC[C@H](CN(c3cccc(-c4coc(C5CC5)n4)c3)C(=O)[C@H]3CC[C@H](C(=O)O)CC3)CC2)nc1C` [Compound 18.01, trans-4-((3-(2-Cyclopropyloxazol-4-yl)phenyl)((trans-4-(5-methoxy-6-methylpyridin-2-yl)cyclohexyl)methyl)carbamoyl) cyclohexanecarboxylic acid] stands not above 250 nM; under `COc1ccc([C@H]2CC[C@H](CN(c3cc(-c4coc(C5CC5)n4)ccn3)C(=O)[C@H]3CC[C@H](C(=O)O)CC3)CC2)cc1C` [Compound 18.02, trans-4-((4-(2-Cyclopropyloxazol-4-yl)pyridine-2-yl)((trans-4-(4-methoxy-3-methylphenyl)cyclohexyl)methyl)carbamoyl)cyclohexanecarboxylic acid], not above 250 nM; under `COc1ccc(C23CCC(CN(c4cc(-c5coc(C6CC6)n5)ccn4)C(=O)[C@H]4CC[C@H](C(=O)O)CC4)(CC2)CC3)cc1C` [Compound 18.03, trans-4-((4-(2-Cyclopropyloxazol-4-yl)pyridin-2-yl)((4-(4-methoxy-3-methylphenyl)bicyclo[2.2.2]octan-1-yl)methyl)carbamoyl) cyclohexanecarboxylic acid], not above 250 nM.
In the case of `CN(C)c1ccc([C@H]2CC[C@H](CN(c3cccc(-c4coc(C5CC5)n4)c3)C(=O)[C@H]3CC[C@H](C(=O)O)CC3)CC2)cn1` [Compound 18.04, trans-4-((3-(2-Cyclopropyloxazol-4-yl)phenyl)((trans-4-(6-(dimethylamino)pyridine-3-yl)cyclohexyl)methyl)carbamoyl) cyclohexanecarboxylic acid], the EC50 was not above 250 nM.
On to `COc1ccc([C@H]2CC[C@H](CN(c3cccc(-c4coc(C5CC5)n4)c3)C(=O)[C@H]3CC[C@H](C(=O)O)CC3)CC2)nc1C#N` [Compound 18.05, trans-4-(((trans-4-(6-Cyano-5-methoxypyridin-2-yl)cyclohexyl)methyl)(3-(2-cyclopropyloxazol-4-yl)phenyl)carbamoyl) cyclohexanecarboxylic acid], for which the EC50 was not above 250 nM.
As to `COc1ccc([C@H]2CC[C@H](CN(c3cccc(-c4cnc(C5CC5)s4)c3)C(=O)[C@H]3CC[C@H](C(=O)OC)CC3)CC2)cc1C` [Compound 18.06, trans-Methyl 4-((3-(2-cyclopropylthiazol-5-yl)phenyl)((trans-4-(4-methoxy-3-methylphenyl)cyclohexyl)methyl)carbamoyl) cyclohexanecarboxylate], the EC50 was not above 250 nM.
Consider `COc1ncc(-c2cccc(N(C[C@H]3CC[C@H](c4ccc(OC)c(C)c4)CC3)C(=O)[C@H]3CC[C@H](C(=O)OC)CC3)c2)s1` [Compound 18.07, trans-Methyl 4-(((trans-4-(4-methoxy-3-methylphenyl)cyclohexyl)methyl)(3-(2-methoxythiazol-5-yl)phenyl)carbamoyl)cyclohexanecarboxylate], for which the EC50 was not above 250 nM.
`COC(=O)[C@H]1CC[C@H](C(=O)N(C[C@H]2CC[C@H](c3ccc(N(C)C)nc3)CC2)c2cccc(-c3cnc(C4CC4)s3)c2)CC1` [Compound 18.08, trans-Methyl 4-((3-(2-cyclopropylthiazol-5-yl)phenyl)((trans-4-(6-(dimethylamino)pyridin-3-yl)cyclohexyl)methyl)carbamoyl) cyclohexanecarboxylate]: the concentration giving a half-maximal response (EC50) is not above 250 nM.
Under `COc1ccc([C@H]2CC[C@H](CN(c3cccc(-c4cnc(C5CC5)s4)c3)C(=O)[C@H]3CC[C@H](C(=O)OC)CC3)CC2)nc1C#N` [Compound 18.09, trans-Methyl 4-(((trans-4-(6-cyano-5-methoxypyridin-2-yl)cyclohexyl)methyl)(3-(2-cyclopropylthiazol-5-yl)phenyl)carbamoyl) cyclohexanecarboxylate] stands not above 250 nM; under `COC(=O)C12CCC(C(=O)N(C[C@H]3CC[C@H](c4ccc(OC)c(C)c4)CC3)c3cccc(-c4cnc(OC)s4)c3)(CC1)CC2` [Compound 18.10, Methyl 4-(((trans-4-(4-methoxy-3-methylphenyl)cyclohexyl)methyl)(3-(2-methoxythiazol-5-yl)phenyl)carbamoyl)bicyclo[2.2.2]octane-1-carboxylate], not above 250 nM.
Under `COc1ncc(-c2cccc(N(C[C@H]3CC[C@H](c4ccc(OC)c(C)c4)CC3)C(=O)[C@H]3CC[C@H](OCc4ccccc4)CC3)c2)s1` [Compound 18.11, trans-4-(Benzyloxy)-N-((trans-4-(4-methoxy-3-methylphenyl)cyclohexyl)methyl)-N-(3-(2-methoxythiazol-5-yl)phenyl)cyclohexanecarboxamide] stands not below 1000 nM; under `COc1ccc(CO[C@H]2CC[C@H](C(=O)N(C[C@H]3CC[C@H](c4ccc(OC)c(C)c4)CC3)c3cccc(-c4cnc(OC)s4)c3)CC2)cc1` [Compound 18.12, trans-N-((trans-4-(4-Methoxy-3-methylphenyl)cyclohexyl)methyl)-4-((4-methoxybenzyl)oxy)-N-(3-(2-methoxythiazol-5-yl)phenyl) cyclohexanecarboxamide], not below 1000 nM.
Next, `COc1ccc([C@H]2CC[C@H](CN(c3cccc(-c4cnn(C5CC5)c4)c3)C(=O)[C@H]3CC[C@H](C(=O)OC)CC3)CC2)cc1C` [Compound 18.13, trans-Methyl 4-((3-(1-cyclopropyl-1H-pyrazol-4-yl)phenyl)((trans-4-(4-methoxy-3-methylphenyl)cyclohexyl)methyl)carbamoyl) cyclohexanecarboxylate]: not above 250 nM; `COC(=O)[C@H]1CC[C@H](C(=O)N(C[C@H]2CC[C@H](c3ccc(N(C)C)nc3)CC2)c2cccc(-c3cnn(C4CC4)c3)c2)CC1` [Compound 18.14, trans-Methyl 4-((3-(1-cyclopropyl-1H-pyrazol-4-yl)phenyl)((trans-4-(6-(dimethylamino)pyridin-3-yl)cyclohexyl)methyl)carbamoyl) cyclohexanecarboxylate]: not above 250 nM; `COc1ccc(C23CCC(CN(c4cccc(-c5cnn(C6CC6)c5)c4)C(=O)[C@H]4CC[C@H](NC(=O)OC(C)(C)C)CC4)(CC2)CC3)cc1C` [Compound 18.15, tert-Butyl (4-((3-(1-cyclopropyl-1H-pyrazol-4-yl)phenyl)((4-(4-methoxy-3-methylphenyl)bicyclo[2.2.2]octan-1-yl)methyl)carbamoyl)cyclohexyl) trans-carbamate]: not above 250 nM.
Take `COc1ccc([C@H]2CC[C@H](CN(c3cccc(-c4cnn(C(C)C)c4)c3)C(=O)[C@H]3CC[C@H](NC(=O)OC(C)(C)C)CC3)CC2)cc1C` [Compound 18.16, tert-Butyl (trans-4-((3-(1-isopropyl-1H-pyrazol-4-yl)phenyl)((trans-4-(4-methoxy-3-methylphenyl)cyclohexyl)methyl)carbamoyl)cyclohexyl) carbamate]: the concentration giving a half-maximal response (EC50) was not above 250 nM.
The compound `COc1ccc([C@H]2CC[C@H](CN(c3cc(-c4cnn(C5CC5)c4)ccn3)C(=O)[C@H]3CC[C@H](C(=O)OC)CC3)CC2)nc1C` [Compound 18.17, trans-Methyl 4-((4-(1-cyclopropyl-1H-pyrazol-4-yl)pyridin-2-yl)((trans-4-(5-methoxy-6-methylpyridin-2-yl)cyclohexyl)methyl)carbamoyl) cyclohexanecarboxylate] displayed an EC50 of 250 to 1000 nM.
